Like-named read-outs stand apart in the source and are kept apart here.
Assays:
[1] = test system: pregnant rats; conditions: BIC orally 5, 30, or 300 mg/kg/day, gestational day 7 through 17; cited from earlier work
[2] = test system: pregnant rabbits; conditions: cited from earlier work
[3] = test system: HIV; conditions: compared to RAL and EVG; cited from earlier work
[4] = test system: pregnant rats; conditions: BIC orally up to 300 mg/kg/day, gestational day 6 to lactation/postpartum day 24; cited from earlier work
[5] = Amniotic fluid drug concentration in mouse pregnancy model (HPLC-MSMS); assay type: in vivo, C57BL/6J mice; conditions: female, C57BL/6J, mouse, amniotic fluid / maternal plasma, oral, pregnant mice
Description: All animal experiments were approved by the University Health Network Animal Use Committee (protocol #2575) and performed according to the policies and guidelines of the Canadian Council on Animal Care. C57BL/6J mice bred in-house (original breeders from Jackson Laboratory RRID:IMSR JAX:000664) were maintained under a 12-h light/dark cycle, with ad libitum access to food and water. Animals were acclimated to their surroundings for 1 week prior to experiment initiation. Males were isolated for 7 days prior to mating. Female mice (7–12 weeks of age) were mated with males at a ratio of 2:1. Presence of vaginal plug was denoted as gestational day 0.5 (GD0.5). Pregnancy was confirmed by weight gain of >1.5 g on GD9.5 and >3 g on GD13.5. […] The equivalent mouse mg/kg dose was calculated based on the human dose divided by an assumed average human weight of 60 kg. […] On GD15.5, mice underwent saphenous bleed 24 h after the GD14.5 dose administration (trough). Immediately after the saphenous bleed, mice were dosed with the appropriate drug regimen and sacrificed 1 h post-treatment (peak), at which time blood was collected by cardiac puncture and amniotic fluid was collected by dissecting the uterus, puncturing the amniotic sac, and draining the amniotic fluid into a sterile dish. Amniotic fluid was pooled for the entire litter. Samples from 2 dams per arm were analyzed for drug levels.
Briefly, 50 μL of plasma or amniotic fluid was spiked with internal standard (ritonavir-d6) followed by protein precipitation with acetonitrile and filtration. Filtrates were diluted 1:9 with ammonium acetate buffer (10 mM) and analyzed by the HPLC-MSMS system, consisting of a Shimadzu Nexera XR high-performance liquid chromatograph (Shimadzu, Columbia, MD, USA) coupled with a SCIEX API 4500 QqQ mass spectrometer (SCIEX, Concord, ON, Canada). Chromatographic separation by Mobile Phase A (10% methanol, 5% 50 mM ammonium acetate, 85% 0.25% acetic acid pH 3.6 ± 0.2) and Mobile Phase B (90% methanol, 5% 50 mM ammonium acetate, 5% 0.25% acetic acid pH 6.6 ± 0.2) was performed under linear gradient conditions (flow rate 0.7 mL/min) on a reverse-phase Zorbax XDB-C18 column (Agilent Technologies, Santa Clara, CA, USA) maintained at 40 °C. […] HPLC-MSMS data were acquired using Analyst (v 1.6.3, SCIEX, Concord, ON, Canada) and analyzed with MultiQuant software (v 3.0.3, SCIEX, Concord, ON, Canada). […] Positive controls spiked in-house and prepared by an external laboratory during a sample exchange program were included in all runs.

[6] = ex-vivo dually perfused human cotyledon; cited from earlier work
[7] = cited from earlier work

| SMILES | Embryo-fetal effects [1] | Maternal and pregnancy findings ([2]; BIC 1000 mg/kg/day) | Embryo-fetal effects ([2]; BIC orally 100, 300, or 1000 mg/kg/day, gestational day 7 through 19) | In vitro resistance profile [3] | Adverse effects in fetuses or pups [4] | Kp at 1 h ([5]; 1× to 10× BIC, 1 h after dosing, read-out: Ratio of drug in the amniotic fluid to that in maternal plasma) | Kp at 1 h ([5]; 20× BIC dose, 1 h after dosing, read-out: Ratio of drug in the amniotic fluid to that in maternal plasma) | Kp at 1 h ([5]; BIC 0.83 mg/kg (1×) oral gavage once daily GD11.5-GD15.5 with TDF 50 mg/kg + FTC 33.3 mg/kg, mean (SD), n=2, read-out: Amniotic: Maternal Plasma Ratio 1 h) | Kp at 1 h ([5]; BIC 4.15 mg/kg (5×) oral gavage once daily GD11.5-GD15.5 with TDF 50 mg/kg + FTC 33.3 mg/kg, mean (SD), n=2, read-out: Amniotic: Maternal Plasma Ratio 1 h) | Kp at 1 h ([5]; BIC 8.3 mg/kg (10×) oral gavage once daily GD11.5-GD15.5 with TDF 50 mg/kg + FTC 33.3 mg/kg, mean (SD), n=2, read-out: Amniotic: Maternal Plasma Ratio 1 h) | Kp at 1 h ([5]; BIC 16.6 mg/kg (20×) oral gavage once daily GD11.5-GD15.5 with TDF 50 mg/kg + FTC 33.3 mg/kg, mean (SD), n=2, read-out: Amniotic: Maternal Plasma Ratio 1 h) | Placental transfer [6] | Birth defects observed ([7]; interim report, 140 pregnancies in women treated with BIC during periconception or pregnancy) | Virological suppression through delivery ([7]; two pregnant women on BIC) | Drug levels in pregnancy ([7]; second and third trimester) |
| --- | --- | --- | --- | --- | --- | --- | --- | --- | --- | --- | --- | --- | --- | --- | --- |
| O=C(NCc1c(F)cc(F)cc1F)c1cn2c(c(O)c1=O)C(=O)N1[C@H]3CC[C@H](C3)O[C@@H]1C2 [BIC, bictegravir] | no adverse embryo-fetal effects | Spontaneous abortion, decreased body weight, and maternal toxicity | no adverse embryo-fetal effects | improved in vitro resistance profile | no significant adverse effects in fetuses or pups | 0.021 to 0.036 | 0.112 | 0.021 | 0.021 | 0.036 | 0.112 | low placental transfer | three | remained virologically suppressed through delivery |  |
| COc1cc2c(cc1Cc1cccc(Cl)c1F)c(=O)c(C(=O)O)cn2[C@H](CO)C(C)C [EVG, elvitegravir] |  |  |  |  |  |  |  |  |  |  |  |  |  |  | inadequate levels in the second and third trimester |

From paper PMC9501129 (Pharmaceutics, 2022)
